One series deals with Apis mellifera. As to conditions: acute; duration: 48 hours; dermal; mortality.
For another series, the system named is Bibionidae. Conditions: chronic/long-term; duration: 28 days.
Another series deals with Canidae. Conditions: chronic; duration: 1 years; oral; Dog Other; histopathology: nonneoplastic.
A further series has as its system Colinus virginianus. As to conditions: for LD50: acute, oral, mortality.
A further series deals with Danio rerio. As to conditions: mortality.
In the next series the test system is Daphnia magna. Conditions: chronic/long-term; duration: 21 days; reproduction.
The subject of a further series is Folsomia candida. Conditions: chronic/long-term; duration: 28 days.
For another series, the system named is Mus musculus. As to conditions: acute; oral; M; mortality.

The record followed here is EPA's ToxValDB 9.5 (doi:10.2903/j.efsa.2010.1719).

What is called NOAEL is the highest tested level that showed no adverse finding.

SMILES strings stand for the structures. In brackets after ≈: the same amount, converted by molar mass. Several values for one entry are separate records, joined by “and”; a condition that tells them apart may be missing. Equal values may be shown once.

As for `CCCN(CC)CC1COC2(CCC(C(C)(C)C)CC2)O1` (stereo not drawn) [Spiroxamine], the NOEL with Anas platyrhynchos (reproductive) is 10.6 mg/kg-day; in the series on Colinus virginianus (reproduction developmental), 2.02 mg/kg-day; in the series with Rattus norvegicus (chronic), 9.19 mg/kg-day and 22.2 mg/kg-day. Also, the LD50 in the series with Anas platyrhynchos (short-term, oral, feed, mortality) is 874 mg/kg-day; with Apis mellifera it was > 4.2 µg/piece; with Colinus virginianus (diet), > 358 mg/kg-day; with Colinus virginianus, 565 mg/kg-day; in the series on Mus musculus it was 460 mg/kg-day; with Rattus norvegicus (acute, oral, F, mortality), < 560 mg/kg-day. The NOEC with Bibionidae is 5.6 mg/L; in the series with Danio rerio (chronic, duration: 230 days), 0.002 mg/L; in the series with Daphnia magna, 0.034 mg/L; with Folsomia candida, 32 mg/kg; with Tagia sp. (chronic/long-term, duration: 56 days), > 3750 mg/kg. The NOAEL was 2.5 mg/kg-day in the series with Canidae and 10 mg/kg-day in the series on Rattus norvegicus (acute, neurology). Besides, the LC50 is 2.41 µg/mL (≈ 8.1 µM) in the series on Danio rerio (acute, duration: 96 hours) and > 1000 mg/kg in the series on Tagia sp. (acute, duration: 14 days, mortality).
